Assay results reported in the NIST ThermoML archive (doi:10.1021/je700725j).
Numbers after ± are expanded uncertainties.

Settings: Liquid

| vapor or sublimation pressure (273.15 K) | vapor or sublimation pressure (283.15 K) | vapor or sublimation pressure (293.15 K) | vapor or sublimation pressure (303.15 K) | vapor or sublimation pressure (313.15 K) | vapor or sublimation pressure (323.15 K) | Compound |
| --- | --- | --- | --- | --- | --- | --- |
| 620 ± 4 kPa | 837 ± 5 kPa | 1104 ± 7 kPa | 1432 ± 9 kPa | 1830 ± 11 kPa | 2298 ± 14 kPa | CC(F)(F)F [1,1,1-trifluoroethane] |
| 104 ± 2 kPa | 150 ± 2 kPa | 208 ± 2 kPa | 284 ± 3 kPa | 378 ± 3 kPa | 494 ± 4 kPa | CCCC [butane] |
